Laboratory results from PubChem BioAssay AID1963443 (Molecular Pharmacology Branch, DTP, NCI, 2024).

Tested on: MDA-MB-231 complex spheroids, growth inhibition
Experiment: Anticancer human tumor MDA-MB-231 cell line growth inhibition [Asc];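 further: spheroids exposed to compounds for 7 days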
Settings: for IC50: curve of first compound; for viability, T/C: stronger effect = lower value
In short: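 Complex spheroids combining tumor cells with HUVEC endothelial cells and human MSCs, at 37 degrees C, 5% CO2; agents tested alone or combined, half-log dilutions from at or near clinical Cmax, or 10 microM if Cmax unknown.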

## C#Cc1c(F)ccc2cc(O)cc(-c3ncc4c(N5CC6CCC(C5)N6)nc(OCC56CCCN5CC(F)C6)nc4c3F)c12 (stereo not given) + Cc1c(S(C)(=O)=O)c(-c2cc(F)cc(N3CCN(c4ccc(NS(=O)(=O)c5ccc(NC(CCN6CCC(C(=O)OCCCP(=O)(O)O)CC6)CSc6ccccc6)c(S(=O)(=O)C(F)(F)F)c5)cc4)CC3)c2)c(-c2ccc(Cl)cc2)n1C(C)C
Second compound 0.1 µM
  IC50: > 10000 nM
Second compound 0.316 µM
  IC50: 7530 nM
Second compound 1 µM
  IC50: 4700 nM
Second compound 3.16 µM
  IC50: 3260 nM
Second compound 10 µM
  IC50: 3280 nM
Second compound 0.1 µM, first compound 0.0316 µM
  viability, T/C: 96.6%
Second compound 0.1 µM, first compound 0.1 µM
  viability, T/C: 103%
Second compound 0.1 µM, first compound 0.316 µM
  viability, T/C: 95.6%
Second compound 0.1 µM, first compound 1 µM
  viability, T/C: 73.6%
Second compound 0.1 µM, first compound 3.16 µM
  viability, T/C: 68.7%
Second compound 0.1 µM, first compound 10 µM
  viability, T/C: 50.7%
Second compound 0.316 µM, first compound 0.0316 µM
  viability, T/C: 105%
Second compound 0.316 µM, first compound 0.1 µM
  viability, T/C: 104%
Second compound 0.316 µM, first compound 0.316 µM
  viability, T/C: 98.3%
Second compound 0.316 µM, first compound 1 µM
  viability, T/C: 76.6%
Second compound 0.316 µM, first compound 3.16 µM
  viability, T/C: 63.4%
Second compound 0.316 µM, first compound 10 µM
  viability, T/C: 45.5%
Second compound 1 µM, first compound 0.0316 µM
  viability, T/C: 102%
Second compound 1 µM, first compound 0.1 µM
  viability, T/C: 96.8%
Second compound 1 µM, first compound 0.316 µM
  viability, T/C: 101%
Second compound 1 µM, first compound 1 µM
  viability, T/C: 74.2%
Second compound 1 µM, first compound 3.16 µM
  viability, T/C: 59.6%
Second compound 1 µM, first compound 10 µM
  viability, T/C: 36.1%
Second compound 3.16 µM, first compound 0.0316 µM
  viability, T/C: 93.3%
Second compound 3.16 µM, first compound 0.1 µM
  viability, T/C: 94.6%
Second compound 3.16 µM, first compound 0.316 µM
  viability, T/C: 97.7%
Second compound 3.16 µM, first compound 1 µM
  viability, T/C: 72.2%
Second compound 3.16 µM, first compound 3.16 µM
  viability, T/C: 52.9%
Second compound 3.16 µM, first compound 10 µM
  viability, T/C: 23.3%
Second compound 10 µM, first compound 0.0316 µM
  viability, T/C: 97.2%
Second compound 10 µM, first compound 0.1 µM
  viability, T/C: 97.2%
Second compound 10 µM, first compound 0.316 µM
  viability, T/C: 99%
Second compound 10 µM, first compound 1 µM
  viability, T/C: 89.5%
Second compound 10 µM, first compound 3.16 µM
  viability, T/C: 51.3%
Second compound 10 µM, first compound 10 µM
  viability, T/C: 12.7%

## Cc1nc(N2CCC3(CC2)COC(C)C3N)c(CO)nc1Sc1ccnc(N)c1Cl (stereo not given) + Cc1c(S(C)(=O)=O)c(-c2cc(F)cc(N3CCN(c4ccc(NS(=O)(=O)c5ccc(NC(CCN6CCC(C(=O)OCCCP(=O)(O)O)CC6)CSc6ccccc6)c(S(=O)(=O)C(F)(F)F)c5)cc4)CC3)c2)c(-c2ccc(Cl)cc2)n1C(C)C
Second compound 0.1 µM
  IC50: 201 nM
Second compound 0.316 µM
  IC50: 249 nM
Second compound 1 µM
  IC50: 179 nM
Second compound 3.16 µM
  IC50: 162 nM
Second compound 10 µM
  IC50: 162 nM
Second compound 0.1 µM, first compound 0.00949 µM
  viability, T/C: 97.2%
Second compound 0.1 µM, first compound 0.03 µM
  viability, T/C: 90.9%
Second compound 0.1 µM, first compound 0.0949 µM
  viability, T/C: 76.8%
Second compound 0.1 µM, first compound 0.3 µM
  viability, T/C: 37%
Second compound 0.1 µM, first compound 0.949 µM
  viability, T/C: 1.43%
Second compound 0.1 µM, first compound 3 µM
  viability, T/C: 0.95%
Second compound 0.316 µM, first compound 0.00949 µM
  viability, T/C: 108%
Second compound 0.316 µM, first compound 0.03 µM
  viability, T/C: 99.8%
Second compound 0.316 µM, first compound 0.0949 µM
  viability, T/C: 88.9%
Second compound 0.316 µM, first compound 0.3 µM
  viability, T/C: 44.1%
Second compound 0.316 µM, first compound 0.949 µM
  viability, T/C: 1.42%
Second compound 0.316 µM, first compound 3 µM
  viability, T/C: 1.39%
Second compound 1 µM, first compound 0.00949 µM
  viability, T/C: 102%
Second compound 1 µM, first compound 0.03 µM
  viability, T/C: 94%
Second compound 1 µM, first compound 0.0949 µM
  viability, T/C: 81.6%
Second compound 1 µM, first compound 0.3 µM
  viability, T/C: 24.7%
Second compound 1 µM, first compound 0.949 µM
  viability, T/C: 0.73%
Second compound 1 µM, first compound 3 µM
  viability, T/C: 1.11%
Second compound 3.16 µM, first compound 0.00949 µM
  viability, T/C: 95.6%
Second compound 3.16 µM, first compound 0.03 µM
  viability, T/C: 93.4%
Second compound 3.16 µM, first compound 0.0949 µM
  viability, T/C: 78.7%
Second compound 3.16 µM, first compound 0.3 µM
  viability, T/C: 17%
Second compound 3.16 µM, first compound 0.949 µM
  viability, T/C: 1.15%
Second compound 3.16 µM, first compound 3 µM
  viability, T/C: 0.34%
Second compound 10 µM, first compound 0.00949 µM
  viability, T/C: 106%
Second compound 10 µM, first compound 0.03 µM
  viability, T/C: 103%
Second compound 10 µM, first compound 0.0949 µM
  viability, T/C: 82%
Second compound 10 µM, first compound 0.3 µM
  viability, T/C: 12.9%
Second compound 10 µM, first compound 0.949 µM
  viability, T/C: 0.64%
Second compound 10 µM, first compound 3 µM
  viability, T/C: 0.34%
